# Measured values reported in patent US20240299436A1, “Use of Inosine in Preparing Drug For Treatment of Corona Virus Disease 2019” (PLA ACADEMY OF MILITARY MEDICAL SCIENCES, priority 2021, published 2024).
# Tests used:
# SARS-COV-2 [1] = assay: Survival and body weight of SARS-COV-2-infected Balb/c mice; assay type: in vivo; conditions: preventive administration of inosine
# SARS-COV-2 [2] = assay: Lung tissue pathology by H&E staining in SARS-COV-2-infected mice; assay type: in vivo, mouse; conditions: oral inosine administration group vs SARS-COV-2 infection group
# Description: The effect of inosine on pathological changes of lung tissue was observed by hematoxylin and eosin (H&E) staining.
# IL-6 = assay: Serum cytokine IL-6 level by ELISA in SARS-COV-2-infected mice; assay type: in vivo, mouse; conditions: inosine group
# Protocol: In the process of cytokine storm (CRS), IL-6 is one of the most critical cytokines, and severity of the CRS is closely related to the increase in IL-6. In the cytokine storm induced by SARS-COV-2, IL-6 plays an important role. In order to determine whether the inosine could inhibit the secretion of IL-6, the level of cytokine IL-6 in mouse serum was determined by ELISA.
smiles,measurement,setting,value
OC[C@H]1O[C@@H](n2cnc3c(O)ncnc32)[C@H](O)[C@@H]1O [inosine],day after infection on which body weights regained gradually,SARS-COV-2 [1],8 days
same,weight loss,SARS-COV-2 [1]; vs model group,lower weight loss
same,survival time of the Balb/c mice,SARS-COV-2 [1]; vs model group (died on days 4-7),significantly prolonged
same,inflammatory infiltration of lung tissue,SARS-COV-2 [2],significantly improved
same,pathological changes of lung tissue (H&E staining),SARS-COV-2 [2],"the lung tissues were structurally intact, alveolar space was clear, no congestion was noted in the pulmonary alveolar wall"
same,level of cytokine IL-6 in mouse serum,IL-6,could inhibit the high expression of SARS-COV-2 induced IL-6
